Experimental data from patent US12453708B2, “Aminonaphthoquinone compounds for treatment and/or prevention of fibrosis diseases” (CALGENT BIOTECHNOLOGY CO., LTD., priority 2015, dated 2025).

How the values were obtained:
Format in all cases: cell-based, human
[1] = tested on: TGF-β-induced fibronectin expression in WI-38 cells; test: TGF-β-induced fibronectin expression in WI-38 cells (Western blot, immunofluorescence); conditions: WI-38 lung fibroblasts, 0.3, 1, 3 or 10 μM for 30 min before and during incubation with TGF-β (10 ng/mL)
Protocol: (§1) FIGS. 6 (A), (B) and (C) show the effect of L056 on TGF-β-induced fibronectin expression in WI-38 cells. WI-38 lung fibroblasts were incubated with different concentrations of L056 (0.3, 1, 3 or 10 μM) for 30 min before and during incubation for 2 h with TGF-β (10 ng/mL). […] (A), Western blot plot; (B), Quantitative assay of Western blot; (C), Immunofluorescence plot. WI-38 cells, a normal human embryonic lung fibroblast cell line, were obtained from American Type Culture Collection (Manassas, VA). Cells were grown in MEM nutrient mixture, containing 10% FCS, 2 mM L-glutamine, 0.1 mM NEAA, 1 mM sodium pyruvate, 50 U/ml penicillin G, and 100 µg/ml streptomycin, in a humidified 37° C. incubator with 5% CO2 Cells were used between passages 18 and 30 for all experiments. After reaching confluence, cells were seeded onto 6-cm dishes for immunoblotting. Western blot analyses were performed as described previously (Chen B C, Chang Y S, Kang J C, Hsu M J, Sheu J R, Chen T L, et al. Peptidoglycan induces nuclear factor-kappaB activation and cyclooxygenase-2 expression via Ras, Raf-1, and ERK in RAW 264.7 macrophages. J Biol Chem 2004; 279:20889-97). […] The immunoreactivity was detected using enhanced chemiluminescence (ECL) following the manufacturer's instructions. Quantitative data were obtained using a computing densitometer with scientific imaging systems (Kodak, Rochester, NY). […]

[2] = tested on: TGF-β-induced CTGF expression in WI-38 cells; test: TGF-β-induced CTGF expression in WI-38 cells (Western blot); conditions: WI-38 lung fibroblasts, 0.3, 1, 3 or 10 μM for 30 min before and during 2 h TGF-β (10 ng/mL)
Protocol: as §1, with “1 (A) and” for “6 (A),”, “(B)” for “(B) and (C)”, “CTGF” for “fibronectin”, “blot.” for “blot; (C), Immunofluorescence plot.”

WI-38 lung fibroblasts = test: Cell viability test (MTT-assay) in WI-38 cells; conditions: 0.3, 1, 3 or 10 μM for 2 hours
Protocol: WI-38 cells, a normal human embryonic lung fibroblast cell line, were obtained from American Type Culture Collection (Manassas, VA). Cells were grown in MEM nutrient mixture, containing 10% FCS, 2 mM L-glutamine, 0.1 mM NEAA, 1 mM sodium pyruvate, 50 U/ml penicillin G, and 100 µg/ml streptomycin, in a humidified 37° C. incubator with 5% CO2 Cells were used between passages 18 and 30 for all experiments. After reaching confluence, cells were seeded onto 6-cm dishes for immunoblotting. WI-38 lung fibroblasts were incubated with different concentrations of MPTOL056 (0.3, 1, 3 or 10 μM) for 2 hours before MTT-assay.

Q: How did the TGF-β-induced fibronectin expression [1] turn out when `O=C(Nc1ccncc1)c1ccc(CNC2=C(Cl)C(=O)c3ccccc3C2=O)cc1` [Example L056, 4-(((3-chloro-1,4-dioxo-1,4-dihydronaphthalen-2-yl)amino)methyl)-N-(pyridin-4-yl)benzamide] was run?
A: significantly inhibited

Q: What about the “TGF-β-induced CTGF production” value [2] of the same molecule?
A: significantly inhibited

Q: What about the cell viability (WI-38 lung fibroblasts) of the same molecule?
A: did not affect cell viability
